Assay results taken from PubChem BioAssay (NCI).
Where “and” joins values, the source holds several entries; their conditions need not be identical. Equal values may be shown once.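 Growth conditions: 96-well plates. Treatment: test compound, 48 hours, 5 concentrations. Analysis: linear interpolation between bracketing concentrations; unreached endpoints set to highest concentration. Here, GI50 denotes the concentration required for 50% inhibition of growth. TGI is the concentration that stops growth completely.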

The compounds below were run on MDA-MB-468 breast (assay: NCI-60 cell line screen, 48 h).

| Structure (SMILES) | GI50 | TGI [nM] |
| --- | --- | --- |
| CCOC(=O)c1cc2c(n1Cc1cccc(OC)c1)-c1oncc1CCC2 | 732 nM | > 82800 |
| C=C1/C(=C\C=C2/CCC[C@]3(C)[C@@H]([C@H](C)CCCC(C)(C)O)CC[C@@H]23)C[C@@H](OC(=O)CBr)C[C@@H]1O | 2560 nM | 7740 |
| CN1CCN(CCOc2ccc(-c3cnc4c(-c5ccc(C(F)(F)F)cc5)cnn4c3)cc2)CC1 | 1360 nM | 2950 |
| CCN(Cc1ccc(F)cc1)c1ccc(CO)c(F)c1 | 167 nM | 461 |
| COc1ccc2c(c1)nnn1c3ncccc3c(N=O)c21 | 32.3 nM and 126 nM | – |
| CN[C@H](C#Cc1c(F)ccc2c1/C(=C/c1[nH]ccc1OC)C(=O)N2)CO | 476 nM | 1450 |
| NC(=O)c1ccc(I)c(N=O)c1 | 21300 nM | 61300 |
| COc1ccc(-c2cc(-c3cccc4ccccc34)n3c(n2)nc2ccccc23)cc1OC | 2700 nM | > 100000 |
| COc1ccc(C2CC(C)(O)Oc3cc4c(cc32)OCO4)cc1 (stereo not drawn) | 18900 nM | 55700 |
| NC(=O)c1ccccc1Nc1ccc2nnc(-c3ccncc3)n2n1 | 1980 nM | 7320 |
| CCCNC(=O)CCC(C)C1CCC2C3C(C[C@H](OC(C)=O)[C@]12C)[C@@]1(C)CCC2(C[C@H]1C[C@H]3OC(C)=O)OOC1(CC[C@]3(C)C4C[C@H](OC(C)=O)[C@]5(C)C(C(C)CCC(=O)NCCC)CCC5C4[C@H](OC(C)=O)C[C@@H]3C1)OO2 (stereo partly drawn) | 24900 nM | > 100000 |
| Cc1cc(O)c(C2=NN(c3ccc(S(N)(=O)=O)cc3)C(c3ccccc3Cl)C2)cc1Cl (stereo not drawn) | 2220 nM | 4740 |
| CCC(C)[C@H]1O[C@]2(C=C[C@@H]1C)C[C@@H]1C[C@@H](C/C=C(\C)[C@@H](OC3C[C@H](OC)C(O[C@H]4C[C@H](OC)[C@@H](O)[C@H](C)O4)[C@H](C)O3)[C@@H](C)/C=C/C=C3\CO[C@@H]4[C@H](O)C(C)=C[C@@H](C(=O)O1)[C@]34O)O2 (stereo partly drawn) | 1030 nM | 4140 |
| CCCc1cc(=O)[nH]c(-n2nc(C)cc2C)n1 | 4770 nM | > 100000 |
| CCn1cc(C(=O)N/N=C/c2ccccc2)c(=O)c2cc(F)c(N3CCNC(C)C3)c(F)c21 (stereo not drawn) | 1620 nM | 3120 |
| COc1cccc(C2=C(c3c(C)n(C)c4ccccc34)C(=O)NC2=O)c1 | 7670 nM | > 25000 |
| COc1ccc(C(=O)/C=C/c2cccc([N+](=O)[O-])c2)c(OC)c1 | 1090 nM | 3000 |
| Cc1cc(NCCN(C(C)C)C(C)C)nc(/N=C(\N)Nc2ccc(Cl)c(C(F)(F)F)c2)n1 | 229 nM | 595 |
| COc1cccc(-n2nc(C)c3c(N/N=C(\C)c4ccncc4)ncnc32)c1 | 2670 nM | > 25000 |
| C[C@]12CCc3sc(NCCc4ccccc4)nc3C1=CC[C@@H]1[C@@H]2CC[C@]2(C)C(=O)CC[C@@H]12 | 2990 nM | 10300 |
| Cc1cc(Cl)cc(NS(=O)(=O)c2ccc(-c3cnc(C4CC4)o3)cc2)c1 | 120 nM | 4440 |
| CNC(=O)c1cccc2cc(Oc3ccnc4cc(OCC5(N)CC5)c(OC)cc34)ccc12 | 7410 nM | 22600 |
| CCCCC[C@H]1C/C=C2/C(=O)C=C[C@@H]2C/C=C\CCCC(=O)O[C@@H](CCCCC)C/C=C2/C(=O)C=C[C@@H]2C/C=C\CCCC(=O)O1 | 371 nM | 1010 |
| CC1OC(n2c3ccccc3c3c4c(c5c6ccccc6[nH]c5c32)C(=O)N(CCN[C@@H]2CCC[C@H]2N)C4=O)CC(O)C1O (stereo partly drawn) | 1150 nM | 3000 |
| O=C(Nc1cccc(-n2cc(-c3ccncc3)c(-c3ccc(Cl)c(O)c3)n2)c1)c1ccc(N2CCOCC2)c(C(F)(F)F)c1 | 7040 nM | 26600 |
| O=C1c2cccc(NCCN=Cc3cc([N+](=O)[O-])ccc3O)c2C(=O)c2c(NCCN=Cc3cc([N+](=O)[O-])ccc3O)cccc21 | 1860 nM | 20100 |
| CN(C)c1ccc(-c2cc(-c3c[nH]c4ccccc34)nc(N)c2C#N)cc1 | 1970 nM | 9220 |
